Measurements from article PMC12749166, “Fragment-based drug design of a bacterial kinase inhibitor capable of increasing the antibiotic sensitivity of clinical isolates” (Communications Chemistry, 2025).

Experiments:
[1] = target: T1, APH(3’)-IIa (Klebsiella pneumoniae, UniProt P00552); assay: Isothermal Titration Calorimetry; type: binding, K. pneumoniae
T1 construct: His-tag (inferred from HisTrap purification); made in house; host or cells: E. coli BL21
Description: ITC experiments were performed on three different machines: a MicroCal VP-ITC (GE Healthcare), a MicroCal PEAQ-ITC (Malvern), or a MicroCal iTC200 (Malvern). The architecture and principles are similar for the three different systems. The experiments were carried out in Buffer HEPES at 25 °C. Titrations consisted of twenty injections of 1.5 µL inhibitors, every 120 seconds, into the measuring cell using the injection syringe rotating at 750 rpm. The data were analyzed using the MicroCal PEAQ-ITC software (v. 1.52, Malvern) using the single-site binding model to fit the raw data. The standard error of the Kd value was determined from measurements made on distinct samples (n indicated in the text).

[2] = system: APH(3’)-Ic; type: biochemical, A. baumannii; settings: 100 µM of 83
[3] = target: APH(2”)-IVa (Enterococcus casseliflavus, UniProt O68183); assay: IC50 by HPLC quantification of ATP and ADP; type: biochemical, E. casseliflavus
Description: (§1) The reaction mixture consists of the APH and its substrates, as well as a potential inhibitor for inhibition measurements. Reactions were initiated by adding the ATP solution supplemented or not with the inhibitor, in a thermostated beaker containing the APH. […] The reaction was stopped at several time points by adding 80 µL of the enzymatic reaction mixture from the beaker to 40 µL of 10% perchloric acid (PCA) in an Eppendorf tube. Samples were then centrifuged for 30 min at 12750 rpm and 8 °C. 100 µL of the supernatant was then mixed with 900 µL of mobile phase (250 mM NaH2PO4, 50% Acetonitrile, pH 5.5) supplemented with KOH to readjust the pH to 5.5 before injection. […] 100 µL of samples were injected on a SAX PartiSphere column (AIT France) at a flow rate of 1 mL min^−1. ATP and ADP peaks were integrated, and the area under the peaks was calculated using OpenLab CDS software (v. ChemStation, Agilent). The kss values were then measured using linear regression in GraFit software and IC50 determined by fitting with a hyperbola the percentage of inhibition as a function of inhibitor concentration. The standard error of the IC50 value was determined in the GraFit software based on the fitting of the experimental data.

[4] = target: T2, APH(3’)-IIb (Pseudomonas aeruginosa, UniProt Q9HWR2, M95L); assay: biochemical
T2 sequence (Q9HWR2 1-268 M95L): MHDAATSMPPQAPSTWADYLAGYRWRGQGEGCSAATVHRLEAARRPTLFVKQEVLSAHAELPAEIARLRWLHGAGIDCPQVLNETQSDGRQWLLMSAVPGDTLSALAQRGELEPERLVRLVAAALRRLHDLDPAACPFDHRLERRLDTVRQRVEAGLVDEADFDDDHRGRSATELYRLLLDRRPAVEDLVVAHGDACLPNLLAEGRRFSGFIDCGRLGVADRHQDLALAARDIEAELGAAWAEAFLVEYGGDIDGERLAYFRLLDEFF
Description: as §1

[5] = system: S. aureus C0032; assay: Checkerboard assay of 83 with kanamycin A; type: cell-based; settings: for MIC of kanamycin A: 0.125 µg mL^−1 imipenem, 18 h at 37 °C; for checkerboard well reading (growth): Supp. Figure 3 C

T1 sequence (P00552 whole entry): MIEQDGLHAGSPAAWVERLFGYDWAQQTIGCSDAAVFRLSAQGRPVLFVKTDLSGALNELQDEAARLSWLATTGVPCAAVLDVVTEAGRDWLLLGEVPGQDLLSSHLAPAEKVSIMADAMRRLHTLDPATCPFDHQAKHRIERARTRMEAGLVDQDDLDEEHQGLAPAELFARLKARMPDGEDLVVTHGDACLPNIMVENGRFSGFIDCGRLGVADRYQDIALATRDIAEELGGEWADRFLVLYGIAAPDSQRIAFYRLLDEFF
Sequence of APH(2”)-IVa (O68183 entry or part of it): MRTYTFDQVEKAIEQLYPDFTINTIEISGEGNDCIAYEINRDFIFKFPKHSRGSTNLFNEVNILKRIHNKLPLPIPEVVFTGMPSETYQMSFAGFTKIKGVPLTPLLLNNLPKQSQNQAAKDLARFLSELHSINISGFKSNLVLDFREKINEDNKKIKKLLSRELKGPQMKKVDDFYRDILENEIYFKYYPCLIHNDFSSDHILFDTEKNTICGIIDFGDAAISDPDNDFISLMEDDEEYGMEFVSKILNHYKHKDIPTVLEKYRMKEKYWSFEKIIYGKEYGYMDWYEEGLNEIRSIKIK

SMILES: Clc1cnc2[nH]ccc2c1-c1ccn[nH]1 [Compound 83]
- Kd [1]: 1250 nM
- ΔH ([1]; ITC): -13.1 kcal/mol
- Inhibition (%) [2]: 35%
- IC50 [3]: 840 ± 130 nM
- IC50 [4]: 1230 ± 40 nM
- MIC of kanamycin A ([5]; [83] 2 µg mL^−1): 4096 µg/mL
- MIC of kanamycin A ([5]; [83] 4 µg mL^−1): 4096 µg/mL
- MIC of kanamycin A ([5]; [83] 8 µg mL^−1): 4096 µg/mL
- MIC of kanamycin A ([5]; [83] 16 µg mL^−1): 4096 µg/mL
- MIC of kanamycin A ([5]; [83] 32 µg mL^−1): 2048 µg/mL
- MIC of kanamycin A ([5]; [83] 64 µg mL^−1): 2048 µg/mL
- MIC of kanamycin A ([5]; [83] 128 µg mL^−1): 2048 µg/mL
- checkerboard well reading (growth) ([5]; 83 1 µg.mL-1, kanamycin A 0 µg.mL-1): 0.496
- checkerboard well reading (growth) ([5]; 83 1 µg.mL-1, kanamycin A 2 µg.mL-1): 0.320
- checkerboard well reading (growth) ([5]; 83 1 µg.mL-1, kanamycin A 4 µg.mL-1): 0.317
- checkerboard well reading (growth) ([5]; 83 1 µg.mL-1, kanamycin A 8 µg.mL-1): 0.300
- checkerboard well reading (growth) ([5]; 83 1 µg.mL-1, kanamycin A 16 µg.mL-1): 0.287
- checkerboard well reading (growth) ([5]; 83 1 µg.mL-1, kanamycin A 32 µg.mL-1): 0.279
- checkerboard well reading (growth) ([5]; 83 1 µg.mL-1, kanamycin A 64 µg.mL-1): 0.255
- checkerboard well reading (growth) ([5]; 83 1 µg.mL-1, kanamycin A 128 µg.mL-1): 0.294
- checkerboard well reading (growth) ([5]; 83 2 µg.mL-1, kanamycin A 0 µg.mL-1): 0.442
- checkerboard well reading (growth) ([5]; 83 2 µg.mL-1, kanamycin A 2 µg.mL-1): 0.315
- checkerboard well reading (growth) ([5]; 83 2 µg.mL-1, kanamycin A 4 µg.mL-1): 0.311
- checkerboard well reading (growth) ([5]; 83 2 µg.mL-1, kanamycin A 8 µg.mL-1): 0.299
- checkerboard well reading (growth) ([5]; 83 2 µg.mL-1, kanamycin A 16 µg.mL-1): 0.295
- checkerboard well reading (growth) ([5]; 83 2 µg.mL-1, kanamycin A 32 µg.mL-1): 0.268
- checkerboard well reading (growth) ([5]; 83 2 µg.mL-1, kanamycin A 64 µg.mL-1): 0.246
- checkerboard well reading (growth) ([5]; 83 2 µg.mL-1, kanamycin A 128 µg.mL-1): 0.245
- checkerboard well reading (growth) ([5]; 83 4 µg.mL-1, kanamycin A 0 µg.mL-1): 0.451
- checkerboard well reading (growth) ([5]; 83 4 µg.mL-1, kanamycin A 2 µg.mL-1): 0.356
- checkerboard well reading (growth) ([5]; 83 4 µg.mL-1, kanamycin A 4 µg.mL-1): 0.318
- checkerboard well reading (growth) ([5]; 83 4 µg.mL-1, kanamycin A 8 µg.mL-1): 0.313
- checkerboard well reading (growth) ([5]; 83 4 µg.mL-1, kanamycin A 16 µg.mL-1): 0.286
- checkerboard well reading (growth) ([5]; 83 4 µg.mL-1, kanamycin A 32 µg.mL-1): 0.267
- checkerboard well reading (growth) ([5]; 83 4 µg.mL-1, kanamycin A 64 µg.mL-1): 0.243
- checkerboard well reading (growth) ([5]; 83 4 µg.mL-1, kanamycin A 128 µg.mL-1): 0.258
- checkerboard well reading (growth) ([5]; 83 8 µg.mL-1, kanamycin A 0 µg.mL-1): 0.402
- checkerboard well reading (growth) ([5]; 83 8 µg.mL-1, kanamycin A 2 µg.mL-1): 0.304
- checkerboard well reading (growth) ([5]; 83 8 µg.mL-1, kanamycin A 4 µg.mL-1): 0.300
- checkerboard well reading (growth) ([5]; 83 8 µg.mL-1, kanamycin A 8 µg.mL-1): 0.292
- checkerboard well reading (growth) ([5]; 83 8 µg.mL-1, kanamycin A 16 µg.mL-1): 0.282
- checkerboard well reading (growth) ([5]; 83 8 µg.mL-1, kanamycin A 32 µg.mL-1): 0.271
- checkerboard well reading (growth) ([5]; 83 8 µg.mL-1, kanamycin A 64 µg.mL-1): 0.244
- checkerboard well reading (growth) ([5]; 83 8 µg.mL-1, kanamycin A 128 µg.mL-1): 0.258
- checkerboard well reading (growth) ([5]; 83 16 µg.mL-1, kanamycin A 0 µg.mL-1): 0.581
- checkerboard well reading (growth) ([5]; 83 16 µg.mL-1, kanamycin A 2 µg.mL-1): 0.303
- checkerboard well reading (growth) ([5]; 83 16 µg.mL-1, kanamycin A 4 µg.mL-1): 0.295
